Assay results taken from patent publication US20250034125A1, “COMPOUNDS AND USES THEREOF” (JANSSEN PHARMACEUTICA NV, priority 2019, published 2025).
Where two headings read alike, the source gives them in different places.

Assays:
[1] = biological target: T1, SCD5 (Homo sapiens, UniProt Q86SK9); assay: Growth inhibition of yeast (ole1Δ) expressing human SCD5 as the sole desaturase; type: cell-based
T1 construct: host or cells: Saccharomyces cerevisiae ole1Δ strain (W303 pdr1Δ pdr3Δ background), plasmid pRS316, TDH3 promoter
T1 sequence (Q86SK9 1-330): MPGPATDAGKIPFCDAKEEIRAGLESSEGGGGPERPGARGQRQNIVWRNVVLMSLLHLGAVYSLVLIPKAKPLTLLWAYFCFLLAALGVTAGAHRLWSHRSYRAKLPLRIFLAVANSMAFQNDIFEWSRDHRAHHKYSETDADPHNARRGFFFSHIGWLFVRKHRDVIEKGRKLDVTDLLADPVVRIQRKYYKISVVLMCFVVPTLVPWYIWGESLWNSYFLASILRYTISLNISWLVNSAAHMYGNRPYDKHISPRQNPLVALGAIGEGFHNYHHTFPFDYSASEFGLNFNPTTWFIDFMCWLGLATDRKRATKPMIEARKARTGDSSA

[2] = biological target: T2, SCD1 (Homo sapiens, UniProt O00767); assay: Growth inhibition of yeast (ole1Δ) expressing human SCD1 as the sole desaturase; type: cell-based
T2 construct: host or cells: Saccharomyces cerevisiae ole1Δ strain (W303 pdr1Δ pdr3Δ background), plasmid pRS316, TDH3 promoter
T2 sequence (O00767 1-359): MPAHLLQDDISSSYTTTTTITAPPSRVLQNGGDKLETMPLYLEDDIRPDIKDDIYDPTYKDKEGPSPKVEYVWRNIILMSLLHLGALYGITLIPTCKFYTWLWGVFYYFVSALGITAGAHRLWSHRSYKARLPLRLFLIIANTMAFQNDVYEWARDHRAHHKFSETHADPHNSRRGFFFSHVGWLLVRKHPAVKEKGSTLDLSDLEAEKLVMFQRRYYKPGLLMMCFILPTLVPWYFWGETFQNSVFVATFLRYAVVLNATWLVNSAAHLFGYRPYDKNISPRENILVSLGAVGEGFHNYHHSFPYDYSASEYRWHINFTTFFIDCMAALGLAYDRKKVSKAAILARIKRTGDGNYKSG

[3] = yeast strain with SCD5 plasmid, OD600 growth read at 40 h, read-out: SCD5 IC50
[4] = yeast strain with SCD1 plasmid, OD600 growth read at 40 h, read-out: SCD1 IC50

Compound | IC50 [1, 3] [nM] | IC50 [2, 4] [nM] | other results
Cn1nc(-c2nc(N3CCC(Cc4ccccc4)CC3)no2)ccc1=O [Compound 113, 6-(3-(4-benzylpiperidin-1-yl)-1,2,4-oxadiazol-5-yl)-2-methylpyridazin-3(2H)-one] | 380 | > 45000 | –
Cc1cc(NC(=O)N2CCC(Cc3cc(F)cc(F)c3)CC2)nn(C)c1=O [Compound 128] | 20 | 50 | –
Cn1nc(NC(=O)N2CCC(Cc3cc(F)cc(C#N)c3)CC2)ccc1=O [Compound 50] | 2460 | 17100 | –
Cn1nc(NC(=O)N2CC[C@@H](Oc3ccc(F)c(F)c3)C2)ccc1=O [Compound 27, (3R)-3-(3,4-difluorophenoxy)-N-(1-methyl-6-oxo-1,6-dihydropyridazin-3-yl)pyrrolidine-1-carboxamide] | > 45000 | 17000 | –
Cn1nc(-c2nc(N3CCC(Cc4cc(F)cc(F)c4)CC3)no2)ccc1=O [Compound 115, 6-(3-(4-(3,5-difluorobenzyl)piperidin-1-yl)-1,2,4-oxadiazol-5-yl)-2-methylpyridazin-3(2H)-one] | 10 | 450 | –
COC1(Cc2cccc(F)c2)CCN(C(=O)Nc2ccc(=O)n(C)n2)CC1 [Compound 48, 4-(3-fluorobenzyl)-4-methoxy —N-(1-methyl-6-oxo-1,6-dihydropyridazin-3-yl)piperidine-1-carboxamide] | > 45000 | > 45000 | –
Cn1nc(NC(=O)N2CCC(Oc3cccc(F)c3C(F)(F)F)CC2)ccc1=O [Compound 84] | 170 | 430 | –
Cn1nc(OC(=O)N2CCC(Oc3cc(F)cc(F)c3)CC2)ccc1=O [Compound 108] | 5010 | 9000 | –
Cn1nc(NC(=O)N2CCC(Oc3cccc(Cl)c3)CC2)ccc1=O [Compound 68, 4-(3-chlorophenoxy)-N-(1-methyl-6-oxo-1,6-dihydropyridazin-3-yl)piperidine-1-carboxamide] | 60 | 260 | –
Cn1nc(NC(=O)N2CCC(F)(Cc3cc(F)cc(F)c3)CC2)ccc1=O [Compound 59, 4-(3,5-difluorobenzyl)-4-fluoro —N-(1-methyl-6-oxo-1,6-dihydropyridazin-3-yl)piperidine-1-carboxamide] | 11000 | > 45000 | –
Cn1nc(NC(=O)N2CCC(Oc3ccc(F)cc3Cl)CC2)ccc1=O [Compound 83, 4-(2-chloro-4-fluorophenoxy)-N-(1-methyl-6-oxo-1,6-dihydropyridazin-3-yl)piperidine-1-carboxamide] | 6210 | 4360 | –
Cn1nc(NC(=O)N2CCC(Oc3cccc(C(F)(F)F)c3)CC2)ccc1=O [Compound 74, N-(1-methyl-6-oxo-1,6-dihydropyridazin-3-yl)-4-(3-(trifluoromethyl)phenoxy) piperidine-1-carboxamide] | 40 | 20 | –
Cn1cc(NC(=O)N2CCC(Nc3cc(F)cc(F)c3)CC2)ccc1=O [Compound 11, 4-(3,5-difluorophenylamino)-N-(1-methyl-6-oxo-1,6-dihydropyridin-3-yl)piperidine-1-carboxamide] | – | – | IC50 [1]: > 45000 nM; IC50 [2]: > 45000 nM
Cn1nc(NC(=O)N2CCC(Oc3cccc(Cl)c3Cl)CC2)ccc1=O [Compound 81, 4-(2,3-dichlorophenoxy)-N-(1-methyl-6-oxo-1,6-dihydropyridazin-3-yl)piperidine-1-carboxamide] | 150 | 60 | –
Cn1nc(NC(=O)N2CCC(F)(Cc3ccc(F)c(F)c3)CC2)ccc1=O [Compound 60, 4-(3,4-difluorobenzyl)-4-fluoro —N-(1-methyl-6-oxo-1,6-dihydropyridazin-3-yl)piperidine-1-carboxamide] | 1100 | 3900 | –
Cn1nc(-c2nc(N3CCC(Cc4ccc(F)c(F)c4)CC3)no2)ccc1=O [Compound 116, 6-(3-(4-(3,4-difluorobenzyl)piperidin-1-yl)-1,2,4-oxadiazol-5-yl)-2-methylpyridazin-3(2H)-one] | 10 | 860 | –
Cn1nc(NC(=O)N2CCC(Oc3ccc(F)c(F)c3)CC2)ccc1=O [Compound 80] | 1190 | 1980 | –
Cn1nc(NC(=O)N2CC(Oc3ccc(F)c(F)c3)C2)ccc1=O [Compound 23, 3-(3,4-difluorophenoxy)-N-(1-methyl-6-oxo-1,6-dihydropyridazin-3-yl)azetidine-1-carboxamide] | 1800 | 1300 | –
Cn1cc(-c2nc(N3CCC(Oc4cc(F)cc(F)c4)CC3)no2)ccc1=O [Compound 15, 5-(3-(4-(3,5-difluorophenoxy)piperidin-1-yl)-1,2,4-oxadiazol-5-yl)-1-methylpyridin-2(1H)-one] | 860 | 12400 | –

Compound | IC50 [1, 3] [nM] | IC50 [2, 4] [nM] | other results
Cn1nc(NC(=O)N2CCC(COc3cccc(F)c3)CC2)ccc1=O [Compound 101, 4-((3-fluorophenoxy)methyl)-N-(1-methyl-6-oxo-1,6-dihydropyridazin-3-yl)piperidine-1-carboxamide] | – | – | IC50 ([1]; read-out: SCD5 IC50): > 45000 nM; IC50 ([2]; read-out: SCD1 IC50): > 45000 nM
Cn1nc(NC(=O)N2CCC(Oc3cc(F)c(F)c(C#N)c3)CC2)ccc1=O [Compound 90, 4-(3-cyano-4,5-difluorophenoxy)-N-(1-methyl-6-oxo-1,6-dihydropyridazin-3-yl)piperidine-1-carboxamide] | 7180 | 10300 | –
Cn1nc(NC(=O)N2CCC(F)(Cc3cccc(Cl)c3)CC2)ccc1=O [Compound 46] | 30 | 640 | –
Cn1nc(NC(=O)N2CCC(Oc3ccccc3Cl)CC2)ccc1=O [Compound 69] | 150 | 420 | –
Cn1nc(NC(=O)N2CCC(Cc3cc(F)c(F)c(C#N)c3)CC2)ccc1=O [Compound 65, 4-(3-cyano-4,5-difluorobenzyl)-N-(1-methyl-6-oxo-1,6-dihydropyridazin-3-yl)piperidine-1-carboxamide] | 1490 | 8150 | –
Cn1nc(NC(=O)N2CCC(OCc3ccccc3F)CC2)ccc1=O [Compound 97, 4-(2-fluorobenzyloxy)-N-(1-methyl-6-oxo-1,6-dihydropyridazin-3-yl)piperidine-1-carboxamide] | 26100 | > 45000 | –
COc1ccccc1OC1CCN(C(=O)Nc2ccc(=O)n(C)n2)CC1 [Compound 73, 4-(2-methoxyphenoxy)-N-(1-methyl-6-oxo-1,6-dihydropyridazin-3-yl)piperidine-1-carboxamide] | 12500 | 31900 | –
Cn1cc(NC(=O)N2CCC(Cc3cc(F)ccc3F)CC2)ccc1=O [Compound 10] | > 45000 | > 45000 | –
Cn1cc(-c2nnc(N3CCC(Cc4cc(F)cc(F)c4)CC3)o2)ccc1=O [Compound 19, 5-(5-(4-(3,5-difluorobenzyl)piperidin-1-yl)-1,3,4-oxadiazol-2-yl)-1-methylpyridin-2(1H)-one] | 1000 | 9720 | –
CN(c1cc(F)cc(F)c1)C1CCN(C(=O)Nc2ccc(=O)n(C)n2)CC1 [Compound 95] | 12000 | > 45000 | –
Cn1nc(NC(=O)N2CCC(Cc3cc(F)c(F)c(Cl)c3)CC2)ccc1=O [Compound 63, 4-(3-chloro-4,5-difluorobenzyl)-N-(1-methyl-6-oxo-1,6-dihydropyridazin-3-yl)piperidine-1-carboxamide] | 10 | 130 | –
Cn1nc(CC(=O)N2CCC(Oc3cccc(Cl)c3)CC2)ccc1=O [Compound 39] | 1380 | 1350 | –
Cn1nc(NC(=O)N2CCC(O)(Cc3cccc(F)c3)CC2)ccc1=O [Compound 47, 4-(3-fluorobenzyl)-4-hydroxy —N-(1-methyl-6-oxo-1,6-dihydropyridazin-3-yl)piperidine-1-carboxamide] | > 45000 | > 45000 | –
Cn1cc(-c2noc(N3CCC(Cc4cc(F)cc(F)c4)CC3)n2)ccc1=O [Compound 21, 5-(5-(4-(3,5-difluorobenzyl)piperidin-1-yl)-1,2,4-oxadiazol-3-yl)-1-methylpyridin-2(1H)-one] | 3000 | 10000 | –
Cn1cc(NC(=O)N2CCC(Cc3cc(F)cc(F)c3)C2)ccc1=O (centres unmarked) [Compound 3, 3-(3,5-difluorobenzyl)-N-(1-methyl-6-oxo-1,6-dihydropyridin-3-yl)pyrrolidine-1-carboxamide] | 20700 | 11300 | –
Cn1nc(NC(=O)N2CCC(Nc3ccccc3C(F)(F)F)CC2)ccc1=O [Compound 92, N-(1-methyl-6-oxo-1,6-dihydropyridazin-3-yl)-4-(2-(trifluoromethyl)phenylamino) piperidine-1-carboxamide] | 390 | 2400 | –
CCn1nc(NC(=O)N2CCC(Cc3cc(F)cc(F)c3)CC2)ccc1=O [Compound 125, 4-(3,5-difluorobenzyl)-N-(1-ethyl-6-oxo-1,6-dihydropyridazin-3-yl)piperidine-1-carboxamide] | 1150 | 4960 | –
Cc1cc(NC(=O)N2CCC(Oc3ccc(F)c(F)c3)CC2)nn(C)c1=O [Compound 127] | 200 | 200 | –
